Results as given in US20010005721A1, “Heel crack healing composition and method therefor” (priority 1998, published 2001).

Experiments:
[1] = tested on: cracks upon the heel and foot; test: Trial Study Series A: active ingredient studies 1-4

C[C@]12CCC(=O)C=C1CC[C@@H]1[C@@H]2[C@@H](O)C[C@@]2(C)[C@H]1CC[C@]2(O)C(=O)CO [Hydrocortisone]
effectiveness ([1]; hydrocortisone concentration about 0.5% or more): most effective concentrations | healing speed ([1]; hydrocortisone concentration greater than about 0.75%): promote a faster healing | effectiveness ([1]; hydrocortisone concentration less than about 0.25%): little worthwhile effect | effectiveness (healing time) ([1]; hydrocortisone concentration less than about 0.5%): generally less effective, having a lengthened healing time

O=C(O)c1ccccc1O [Salicylic acid]
effectiveness ([1]; salicylic acid concentration about 4%): most effective concentration | effectiveness ([1]; salicylic acid concentration about 5%): also an effective concentration | effectiveness / excessive exfoliation ([1]; salicylic acid concentration about 8-9%): not as effective due to excessive exfoliation | effectiveness (exfoliation, healing time) ([1]; salicylic acid concentration less than about 4% in the composition): generally less effective, promoting less exfoliation and having a lengthened healing time | defoliation versus therapeutic benefit (heel cracks; about 10% by weight salicylic acid): effects of rapid defoliation begin to exceed the therapeutic benefits | effect of raising the salicylic acid component (heel cracks; salicylic acid over about 6% or 7% by weight): negative results characterized not only by a rapid defoliation of the affected areas

[O]=[Zn] [Zinc oxide]
healing of cracks upon the heel and foot ([1]; zinc oxide concentration about 3%): optimal concentration | healing properties of the composition ([1]; zinc oxide concentration above about 5%): does not appear to affect the healing properties | healing ([1]; zinc oxide concentration less than about 1%): some slight decrease in the healing
